Data published in patent US9353152B2, “Induction of the mitochondrial permeability transition” (NewSouth Innovations Pty Limited, priority 2002, dated 2016).

Experiments:
HT1080 tumours = test: Primary tumour growth assay; format: in vivo; details: 10 mg/kg/day s.c., SCID mice
Procedure: (§1) Female 7 to 9 week old SCID or C57Bl6/J mice were used (Massachusetts General Hospital, Boston, Mass.). Mice were held in groups of 3 to 5 at a 12 hour day and night cycle and were given animal chow and water ad libidum. SCID or C57Bl6/J mice were anaesthetised by inhalation of isoflurane, the dorsal skin shaved and cleaned with ethanol, and a suspension of 2.5×10^6 BxPC-3, HT1080 or LLC cells in 0.2 mL of PBS, or saline for LLC cells, was injected S.C. in the proximal midline. LLC cells were prepared according to O'Reilly et al. (1997). Tumour volume was calculated using the relationship, a·b^2·0.52, where a is the longest and b the shortest diameter.

LLC tumours = test: Primary tumour growth assay; format: in vivo; details: 10 mg/kg/day s.c., C57Bl6/J mice
Procedure: as §1

Rat liver mitochondria = format: biochemical; details: 100 μM GSAO, 0-60 min
[1] = Titration of arsenoxide compounds with DTT; format: physicochemical; details: GSAO versus Compound 1
MPTP [2] = target: T1, MPTP (Rattus norvegicus, UniProt Q09073); test: Mitochondria swelling assay (MPT induction, decrease in light scattering at 520 nm); format: biochemical
T1 construct: Mitochondria were isolated from the livers of ˜250 g male Wistar rats; from tissue; host or cells: rat liver mitochondria (male Wistar rats)
T1 sequence (Q09073 2-298 limits assumed): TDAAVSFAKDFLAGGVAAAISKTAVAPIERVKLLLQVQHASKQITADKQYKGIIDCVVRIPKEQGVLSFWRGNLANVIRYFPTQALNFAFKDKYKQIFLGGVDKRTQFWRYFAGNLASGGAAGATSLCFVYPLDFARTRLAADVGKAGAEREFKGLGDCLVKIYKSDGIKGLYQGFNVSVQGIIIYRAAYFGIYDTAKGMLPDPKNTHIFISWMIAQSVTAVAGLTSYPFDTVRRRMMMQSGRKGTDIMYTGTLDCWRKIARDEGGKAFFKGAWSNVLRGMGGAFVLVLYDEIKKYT

MPTP [3] = target: T1, MPTP; format: biochemical
[4] = Side-effects in Balb-C nude mice bearing BxPC-3 tumours; format: in vivo; details: 1 or 10 mg/kg/day s.c.
Procedure: Female 7 to 9 week old Balb C nude were used (UNSW Biological Resource Centre). Mice were held in groups of 3 to 5 at a 12 h day and night cycle and were given animal chow and water ad libidum. A suspension of 2.5×10^6 BxPC-3 cells in 0.2 mL of PBS was injected subcutaneously in the proximal midline. Tumours were allowed to establish and grow to a size of ˜40 mm^3 after which they were randomised into four groups. Tumour volume was calculated using the relationship, a·b^2·0.52, where a is the longest and b the shortest diameter. Animals were treated with either GSAO or o-GSAO at a dose 1 or 10 mg/kg/day in 0.1 mL of PBS. The compounds were administered subcutaneously at a site distant from the tumour. Tumour volume and animal weight was measured every 2 or 3 days.
Balb-C nude mice bearing ˜40 mm^3 BxPC-3 tumours were randomised into four groups (n=10 or 11 per group) and treated subcutaneously with either GSAO (part A) or o-GSAO (part B) at 1 or 10 mg/kg/day in 0.1 mL of PBS. Parts C and D are the mice weights for the respective groups, where the arrow indicates start of treatment. The data points are the mean±SE of the tumour volumes or mice weights. Treatment with 10 mg/kg o-GSAO (part B) was stopped at day 14 due to necrosis and inflammation at sites of injection in 7 out of 11 mice (3/11 with severe ulcers, 4/11 with medium ulcers).

[5] = Tolerability in tumour-bearing mice; format: in vivo, SCID or C57Bl6/J mice
Procedure: as §1

CAM angiogenesis = test: Chick chorioallantoic membrane (CAM) angiogenesis assay; format: in vivo; details: 5, 10 or 50 μg per pellet, 48 h
Procedure: Fertilised 3 day-old white Leghorn eggs (Spafas, Norwich, Conn.) were cracked, the embryos with intact yolks placed in 20×100 mm petri dishes and incubated for 3 days at 37° C. and 3% CO2 (Folkman, 1985). Methylcellulose (Fisher Scientific, Fair Lawn, N.J.) discs containing 5, 10 or 50 μg of either GSAA or GSAO were then applied to the CAM of individual embryos and incubated for 48 h at 37° C. and 3% CO2. The discs were made by desiccation of GSAA or GSAO in 10 μl of 0.45% methycellulose on teflon rods. The CAMs were observed using a stereomicroscope and scored for no obvious affect or inhibition of CAM angiogenesis as defined by avascular zones. On some occasions CAM blood vessels were injected with India ink and photographed.

BAE cells [6] = test: Cell viability assay, attached cells (methylene blue), proliferating or growth-quiescent cells; format: cell-based, bovine
Procedure: BAE or HMEC-1 cells were seeded at a density of 10^4 cells per cell into 96 well plates and allowed to adhere overnight and then treated as indicated.

BAE cells [7] = test: Cell proliferation and viability assay (MTT); format: cell-based, bovine; details: 10% serum, 48 h; read-out: IC50 for proliferation arrest of BAE cells
Procedure: BAE or human pancreatic carcinoma BxPC-3 cells were seeded at a density of 10^3 cells per well into 96 well plates in DMEM containing 10% foetal bovine serum and allowed to adhere for 24 h. Cells were washed and incubated with DMEM containing 10% foetal bovine serum and GSAO or o-GSAO and cultured for a further 48 h. Some BAE cells were arrested for 24 h in medium containing 0.25% serum and cultured for a further 48 h in medium containing 0.25% or 10% serum, in the presence of GSAO or o-GSAO. Viable attached cells were determined using MTT.

N[C@@H](CCC(=O)N[C@@H](CSCC(=O)Nc1ccc([As]=O)cc1)C(=O)NCC(=O)O)C(=O)O (some centres unmarked) [GSAO, 4-(N—(S-glutathionylacetyl)amino)-phenylarsenoxide]
inhibition of the rate of tumour growth (HT1080 tumours): ~70% | inhibition of the rate of tumour growth (LLC tumours): ~50% | release of Cytochrome C into the medium (Rat liver mitochondria): triggered time-dependent release | arsenical reactivity (titration with DTT) [1]: no significant difference | half-time for GSAO mediated swelling of the mitochondria (MPTP [2]; 50-200 μM GSAO, increasing Ca^2+ concentration): reduced by added Ca^2+ | swelling of isolated rat liver mitochondria (MPTP [2]; GSAO 25-200 μM, GSAA, GSCA 100 μM, 60 min): triggered swelling | MPTP Swelling Rate Increase/GSAO* Mean (MPTP [3]): 1 | side-effects (behavioural, skin necrosis, weight loss) with GSAO administration [4]: not observed | adverse affects of administration ([5]; 10 mg/kg/day s.c.): no apparent adverse affects | morphological changes in the heart, lungs, liver, kidneys, and spleen ([5]; 10 mg/kg/day s.c.): no morphological changes | average mice weights over the course of the experiments ([5]; GSAO versus GSAA treatment groups): the same | inhibition of CAM angiogenesis (avascular zones) (CAM angiogenesis): inhibited CAM angiogenesis in a concentration-dependent manner | effect on viability of growth-quiescent BAE cells (BAE cells [6]): little effect | IC50 (BAE cells [7]): 8.3 ± 2.1 µM
